Data taken from patent publication US12324927B2, “Methods and systems for photodynamic therapy calculations” (THE TRUSTEES OF THE UNIVERSITY OF PENNSYLVANIA, priority 2018, dated 2025).

Assay: Clinical ROSED during Photofrin-mediated pleural PDT (light fluence, Photofrin concentration, DCS blood flow)
Type: in vivo, human
Procedure: Patients with pathologically confirmed epithelioid malignant pleural mesothelioma were enrolled in a phase II randomized clinical trial of extended pleurectomy/decortication with or without Photofrin-mediated PDT. Photofrin (provided by Pinnacle Biologics, Chicago, IL, USA) was administered at 2 mg per kg of body weight as an intravenous infusion approximately 24 hours prior to the anticipated time of intra-operative PDT. After surgically resecting all gross disease, PDT treatment was performed with 630 nm light to a total fluence of 60 J/cm^2 as previously described (24-28). Briefly, the pleural cavity was filled with diluted Intralipid solution to aid with light scattering and 60 J/cm^2 630 nm light was delivered to the pleural cavity via an optical fiber inserted into modified endotracheal tube filled with 0.1% Intralipid. Homogeneous light delivery is accomplished by continuously moving the light source around the pleural cavity b with continuous feedback monitoring of light fluence rate and cumulative fluence provided by 8 isotropic detectors (Medlight, Switzerland) sutured to the chest wall. Four of the eight isotropic detectors were used to monitor the light dose and Photofrin fluorescence simultaneously. Long pass filters (Semrock, Inc., Rochester, NY, USA) were used to block the treatment light before the fluorescence was recorded by 4 single channel spectrometers (Exemplar, B&W Tek, Inc., Newark, DE, USA).
PDT dose dosimeter consists of photodiodes for light fluence rates measurements and spectrometers for fluorescence measurements. More details about PDT dosimeter and the quantification of absolute Photofrin concentration from measured fluorescence spectra can be found in (19).
Measurement of blood flow during clinical PDT: DCS monitoring of tissue blood flow during pleural PDT was implemented using a custom built DCS contact probe as shown in FIG. 15B. The contact probe consists of a side-firing multimode source fiber and three single mode detector fibers polished at 45°. Light from a continuous wave 785-nm laser with long coherence length was delivered through the source fiber, and the reflected diffuse light was collected using the detector fibers located at 0.4, 0.7 and 1.0-cm from the source fiber. Three single photon counting avalanche photodiodes were used to detect the diffuse light in parallel. The DCS probe was mounted onto a clear acrylic rectangle pad with small holes at each corner that allowed it to be sutured adjacent to one of the isotropic detectors measuring light fluence rate and photosensitizer fluorescence data. Tissue blood flow was measured continuously throughout the PDT treatment. The study started with one DCS contact probe for the first 2 patients, and it was later expanded for the next 5 patients to include the second DCS contact probe to enable simultaneous measurements of blood flow at two different pleural sites.
Calculation of [ROS]rx using ROSED: The PDT process is described by a set of kinetic equations which can be simplified to compute the production of [ROS]rx (4, 8, 9, 13). These equations are dependent on the temporal and spatial distribution of light fluence rate (ϕ), photosensitizer concentration ([S0]), ground state oxygen concentration ([^3O2]), oxygen supply rate (g), and the photosensitizer-specific reaction-rate parameters (δ, β, σ, and ξ). The relevant equations are: […]
Since Photofrin concentration and tissue oxygen were measured in this study, only Eq. (A3) is needed to calculate for [ROS]rx. For the calculation of [ROS]rx, the term on the right-hand side of Eq. (A3) is integrated over the time course of PDT treatment using the measured value of [^3O2], [S0], and light fluence rate. In vivo light fluence rate distribution can be estimated from the in-air light fluence rate using a 6-parameter analytic expression (29). Tissue optical properties needed for this calculation were obtained from diffuse reflectance measurements using the multi-fiber contact probe. […]

[1] = average of 12 sites, 7 patients

With Photofrin the “range of calculated [ROS]rx” value (12 sites, 7 patients) was 0.31−1.17 mM, the “photobleaching (mean Photofrin concentrations during PDT)” value (all measurement sites and all patients) was “no sign of photobleaching” and the “[ROS]rx” value (at surface, per patient and pleural site, ROSED with blood-flow-derived oxygen, pleural apex) was 0.59 mM. The “mean (standard deviation) calculated [ROS]rx” value [1] was 0.59 ± 0.25 mM, the “mean Photofrin concentration of all pleural tissues” value [1] was 6.2 ± 2.1 mg/kg and the “[Photofrin]” value (mean corrected concentration per patient and pleural site, 2 mg per kg i.v. about 24 h before PDT, pleural apex) was 3.9 mg/kg.
